Earlier results, collected in PMC4198332 (Chembiochem : a European journal of chemical biology, 2014).

Experiments:
[1] = test system: human red blood cells (hRBCs)
[2] = test system: Methicillin-resistant S. aureus (MRSA) (ATCC 33591); conditions: included for comparison
E. coli (ATCC 25922) = conditions: included for comparison
[3] = test system: Vancomycin-resistant E. faecalis (ATCC 700802); conditions: included for comparison
[4] = test system: Methicillin-resistant S. epidermidis (MRSE) (RP62A); conditions: included for comparison
[5] = test system: P. aeruginosa (ATCC 27853); conditions: included for comparison

Substance: Pexiganan
- Hemolysis HC50 [1]: --/120 μg/mL
- MIC MRSA (+) [2]: 16 µg/mL
- MIC E. coli (−) (E. coli (ATCC 25922)): 8 µg/mL
- MIC E. faecalis (+) [3]: 32 µg/mL
- MIC MRSE (+) [4]: 8 µg/mL
- MIC P. Aeruginosa (−) [5]: 16 µg/mL
